US20240269298A1, “PHOSPHONYL DERIVATIVE, AND COMPOSITION AND PHARMACEUTICAL APPLICATION THEREOF” (XIZANG HAISCO PHARMACEUTICAL CO., LTD., priority 2021, published 2024)
Where two headings read alike, the source gives them in different places.

What was measured:
[1] = Pharmacokinetic test in mice; format: in vivo; conditions: male, ICR, mouse, po, administration i.g. (10 mg/kg), plasma
How it was run: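 Male ICR mice (20-25 g), fasted 12-14 h before dosing and fed 4 h after, received a single intravenous or intragastric dose. Orbital plasma sampled from 0 to 24 h (5 min-24 h points); LC-MS/MS quantitation for PK parameters and bioavailability.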

[2] = test system: NCI-H1975 (EGFR-L858R-T790M) cells; assay: Inhibitory activity on proliferation of NCI-H1975 (EGFR-L858R-T790M) cells (CTG, 72 h); format: cell-based; conditions: Homo sapiens
How it was run: (§1)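 Cells plated at 1000/well (NCI-H1975, RPMI1640+10% FBS) or 3000/well (A431, DMEM+10% FBS), dosed next day with compounds (0.1% DMSO final) for 72 h at 37 °C, 5% CO2. Viability by CTG luminescence, normalised to vehicle control; IC50 from nonlinear-regression dose-survival curves.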

[3] = test system: A431 (EGFR-WT) cells; assay: Inhibitory activity on proliferation of A431 (EGFR-WT) cells (CTG, 72 h); format: cell-based; conditions: Homo sapiens, A-431
How it was run: as §1

[4] = read-out: IC50 (value in brackets)

| SMILES | AUC [1] | half-life [1] | IC50 ([2]; read-out: IC50 (class symbol)) | IC50 [2, 4] | IC50 [3] |
| --- | --- | --- | --- | --- | --- |
| COc1cc(N2CCC(CN3CCN(c4ccc5c(c4)C(=O)N(C4CCC(=O)NC4=O)C5=O)CC3)CC2)c(-c2cnn(C)c2)cc1Nc1ncc(Cl)c(Nc2ccc(C3CC3)cc2P(C)(C)=O)n1 (stereo not shown) [Compound 107, 5-(4-((1-(4-((5-chloro-4-((4-cyclopropyl-2-(dimethylphosphoryl)phenyl)amino)pyrimidin-2-yl)amino)-5-methoxy-2-(1-methyl-1H-pyrazol-4-yl)phenyl)piperidin-4-yl)methyl)piperazin-1-yl)-2-(2,6-dioxopiperidin-3-yl)isoindoline-1,3-dione] | 130 µg·h/mL | 13.9 h | < 0.1 µM | 0.056 µM | ≥ 10 µM |
| COc1cc(N2CCC(CN3CCN(c4ccc5c(c4)C(=O)N(C4CCC(=O)NC4=O)C5=O)CC3)CC2)c(-c2cnn(C)c2)cc1Nc1ncc(Br)c(Nc2ccc(C3CC3)cc2P(C)(C)=O)n1 (stereo not shown) [Compound 106, 5-(4-((1-(4-((5-bromo-4-((4-cyclopropyl-2-(dimethylphosphoryl)phenyl)amino)pyrimidin-2-yl)amino)-5-methoxy-2-(1-methyl-1H-pyrazol-4-yl)phenyl)piperidin-4-yl)methyl)piperazin-1-yl)-2-(2,6-dioxopiperidin-3-yl)isoindoline-1,3-dione] | 145 µg·h/mL | 18 h | < 0.1 µM | 0.054 µM | ≥ 10 µM |
